“And” between values parts separate entries of the source, which are not always exact repeats. Equal values may be shown once. Read-outs that look alike come from different tables or passages of the source.

Common to all, as to type: cell-based
Assay [1] deals with B. subtilis var. globigii (ATCC 9372). As to conditions: 35° C., 30 seconds; for CFU/Swab: surviving count per replicate (1-5). On the procedure:
(§1) The experiments were designed to identify the conditions optimal for polymer sterilization and also explore the boundary areas to determine the conditions limiting the efficacy of the treatment. Each polymer strip was inoculated by drop spotting approximately 100 micro-liters and coating the surface by swabbing the surface of the polyethylene strip. The culture was allowed to dry before sterilization. Each strip of polyethylene was treated by vigorously agitating the strip in the appropriate treatment solutions. Each treated polymer strip was then treated with catalase to inactivate residual peroxide, swabbed and plated using TGE incubated at 35° C. for two days.
In Table Three, a solution of 0.1 Normal potassium hydroxide (KOH) was utilized with a solution of 3% hydrogen peroxide at a temperature of 35° C. for 30 seconds.

For assay [2] the test system is unchanged. Particulars: surviving count per replicate strip (replicates 1-5), 50° C., inoculum 10^6.
Source text: as §1, with “The following examples illustrate the efficacy of the method of the present invention. The experiments” for “The experiments”
In Table One, a NaOH control, an inoculated untreated control, and two methods of the present invention were measured and the results set forth in Table 1. Five replicate polymer strips were used for each of the two methods of the present invention. A log measurement value is provided below each of the non-log values. The first method uses hydrogen peroxide first and then an alkaline solution of sodium hydroxide. The second method uses an alkaline solution of sodium hydroxide first and then hydrogen peroxide. The sterilization was conducted at 50° C.

Assay [3] shares this test system. As to conditions: for Average: average of the logCFU/Swab replicates; for logCFU/Swab: log of surviving count per replicate (1-5); for logCFU/Swab / CFU/Swab: unagitated; for CFU/Swab: surviving count per replicate (1-5), contact times in label; for bactericidal effect (in words): text on Table Two. As to the method:
as §1
A log measurement value is provided below each of the non-log values. The sterilization was conducted at 50° C.

In assay [1] (log of surviving count per replicate (1-5)), catalase [Catalase Control] showed a logCFU/Swab of 6.40 logCFU/Swab. For the same compound, the CFU/Swab in assay [1] is listed as 2,500,000 CFU/Swab.
Consider `[Na+].[OH-]` [1M NaOH Control, sodium hydroxide], for which the CFU/Swab in assay [2] is 5,700 CFU/Swab and 210 CFU/Swab.
With `OO` [H2O2 Control, hydrogen peroxide], in assay [1], the CFU/Swab is 5,200,000 CFU/Swab.
Regarding `OO` [50° C. 30 s 35% H2O2 10 s catalase, hydrogen peroxide], the Average in assay [3] was found to be 2.30. Besides, in assay [3] (50° C.), the logCFU/Swab is 1.60 logCFU/Swab and 1.30 logCFU/Swab; the CFU/Swab was 40 CFU/Swab and 570 CFU/Swab and 20 CFU/Swab and 270 CFU/Swab and 2700 CFU/Swab. In addition, the “log inactivation per 10 seconds of treatment” value in assay [3] (rate of kill per unit time, 50° C.) is given as 1.45 log per 10 seconds.
On to `[Na+].[OH-]` [50° C. 10 s 0.25M NaOH Control, sodium hydroxide], for which, in assay [3] (50° C.), the “bactericidal effect (in words)” value was “no bacteriocidal effect”; the logCFU/Swab is 6.80 logCFU/Swab and 6.90 logCFU/Swab; the CFU/Swab is 6,300,000 CFU/Swab and 3,800,000 CFU/Swab and 7,900,000 CFU/Swab and 5,400,000 CFU/Swab. The compound also came in with an Average in assay [3] of 6.75.
As for `OO` [50° C. 30 s 3.5% H2O2 10 s catalase, hydrogen peroxide], in assay [3] (50° C.), the “bactericidal effect (in words)” value is reported as “no effect”; the logCFU/Swab is 6.20 logCFU/Swab and 6.60 logCFU/Swab and 6.70 logCFU/Swab; the CFU/Swab was 1,600,000 CFU/Swab and 4,200,000 CFU/Swab and 4,000,000 CFU/Swab and 3,000,000 CFU/Swab and 5,000,000 CFU/Swab. In assay [3], this compound registered an Average of 6.52. Also, the Log reduction in assay [3] (versus inoculated untreated control (average 6.66)) turned out to be 0.14.

(Values after patent US20080233251A1, “Method and Apparatus for Sterilizing Containers” (priority 2005, published 2008).)
